From patent US7135466B2 (Kirin Beer Kabushiki Kaisha, priority 1999, dated 2006)

Assays:
PDGF-Ra = target: T1, PDGF-Ra (Homo sapiens, UniProt P16234); assay: Inhibitory activity against PDGF-Ra phosphorylation by PDGF-AA stimulation using G292; type: cell-based; conditions: for IC50: > means inhibition at indicated concentration not more than 50%, < and << not less than 50%, read-out: PDGF (E) IC50; for inhibition at 0.1 µM: G292, figure within parentheses in >100( ), at 100 nM, read-out: PDGF (E) inhibition (%) at 100 nM
T1 construct: host or cells: G-292 human osteosarcoma cells
In short: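 Read-out: A450 from a sandwich ELISA (PY-20 capture, anti-PDGF-Ra detection, peroxidase colour) of lysates from G-292 cells given compound for 1 hr at 37 °C before a 5 min challenge with PDGF-AA at 50 ng/ml.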

c-kit = target: T2, c-kit (Homo sapiens, UniProt P10721); assay: Inhibitory activity against c-kit autophosphorylation (MO7e cells, h-SCF); type: cell-based; conditions: for IC50: MO7e cells, 50 ng/ml h-SCF, read-out: c-kit IC50; for inhibition at 1 µM: Mo7e, figure within parentheses in −( ) or >1000( ), at 1000 nM
T2 construct: MO7e (human megakaryocytic leukemia cell line) which had been arrested for 20 hr; endogenous in cells; host or cells: MO7e human megakaryocytic leukemia cell line
In short: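 Phospho-c-kit ELISA: plate-bound PY-20 anti-phosphotyrosine captures lysate, anti-c-kit plus peroxidase-labelled secondary antibody detect, read at 450 nm. Lysates come from 20 hr-arrested MO7e cells given compound for 1 hr before a 5 min 50 ng/ml h-SCF stimulus.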

T1 sequence (P16234 24-1089): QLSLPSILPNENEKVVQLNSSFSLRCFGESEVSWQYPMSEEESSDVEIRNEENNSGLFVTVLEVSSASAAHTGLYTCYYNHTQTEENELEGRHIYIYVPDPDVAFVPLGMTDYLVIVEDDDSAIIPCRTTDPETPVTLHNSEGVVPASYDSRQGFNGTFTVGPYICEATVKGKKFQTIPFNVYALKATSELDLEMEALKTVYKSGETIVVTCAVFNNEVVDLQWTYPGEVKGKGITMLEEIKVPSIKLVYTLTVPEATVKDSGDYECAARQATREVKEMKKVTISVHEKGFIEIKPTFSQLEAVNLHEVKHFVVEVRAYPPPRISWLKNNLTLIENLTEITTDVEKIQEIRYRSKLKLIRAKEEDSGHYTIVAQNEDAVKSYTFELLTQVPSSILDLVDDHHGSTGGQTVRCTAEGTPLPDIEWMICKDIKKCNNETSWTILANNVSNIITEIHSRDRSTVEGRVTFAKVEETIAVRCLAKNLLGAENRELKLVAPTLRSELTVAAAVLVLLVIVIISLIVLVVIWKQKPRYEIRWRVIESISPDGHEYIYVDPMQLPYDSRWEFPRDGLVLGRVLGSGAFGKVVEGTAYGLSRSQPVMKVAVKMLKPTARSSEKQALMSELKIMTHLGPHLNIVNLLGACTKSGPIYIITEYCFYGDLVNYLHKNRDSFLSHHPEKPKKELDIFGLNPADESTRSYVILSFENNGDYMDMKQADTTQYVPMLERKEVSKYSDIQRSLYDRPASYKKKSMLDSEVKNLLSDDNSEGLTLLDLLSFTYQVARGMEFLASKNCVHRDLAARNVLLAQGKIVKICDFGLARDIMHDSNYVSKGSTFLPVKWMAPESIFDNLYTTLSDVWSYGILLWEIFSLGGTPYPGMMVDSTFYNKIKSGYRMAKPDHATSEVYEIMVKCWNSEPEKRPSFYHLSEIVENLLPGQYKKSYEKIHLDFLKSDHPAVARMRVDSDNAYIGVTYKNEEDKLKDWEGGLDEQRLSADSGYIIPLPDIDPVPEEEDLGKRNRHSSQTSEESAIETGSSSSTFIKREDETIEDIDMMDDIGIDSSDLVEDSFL
T2 sequence (P10721 26-976): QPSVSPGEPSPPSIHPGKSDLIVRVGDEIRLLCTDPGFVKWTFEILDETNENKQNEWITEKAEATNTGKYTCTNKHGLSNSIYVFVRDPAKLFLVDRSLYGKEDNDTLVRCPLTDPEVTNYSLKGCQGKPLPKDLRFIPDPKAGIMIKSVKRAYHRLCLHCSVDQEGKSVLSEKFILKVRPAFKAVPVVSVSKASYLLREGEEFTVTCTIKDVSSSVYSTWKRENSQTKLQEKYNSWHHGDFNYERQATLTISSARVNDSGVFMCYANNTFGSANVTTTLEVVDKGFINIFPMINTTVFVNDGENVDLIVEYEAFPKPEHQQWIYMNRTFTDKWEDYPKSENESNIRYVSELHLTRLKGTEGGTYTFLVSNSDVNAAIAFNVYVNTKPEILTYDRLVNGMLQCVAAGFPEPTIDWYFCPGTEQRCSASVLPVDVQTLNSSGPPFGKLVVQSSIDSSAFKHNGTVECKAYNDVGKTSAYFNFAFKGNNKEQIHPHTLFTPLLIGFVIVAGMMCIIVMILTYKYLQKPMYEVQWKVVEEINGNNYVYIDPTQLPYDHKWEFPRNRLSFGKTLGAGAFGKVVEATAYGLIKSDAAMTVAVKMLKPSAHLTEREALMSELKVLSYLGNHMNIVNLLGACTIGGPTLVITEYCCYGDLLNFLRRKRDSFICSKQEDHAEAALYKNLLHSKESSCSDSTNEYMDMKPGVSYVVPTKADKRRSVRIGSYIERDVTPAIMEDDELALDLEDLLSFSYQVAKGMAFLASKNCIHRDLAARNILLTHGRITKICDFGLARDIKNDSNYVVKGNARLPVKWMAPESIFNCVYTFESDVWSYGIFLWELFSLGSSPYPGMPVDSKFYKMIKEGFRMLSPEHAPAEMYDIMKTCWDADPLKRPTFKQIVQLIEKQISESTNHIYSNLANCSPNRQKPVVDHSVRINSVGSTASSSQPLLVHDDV

IC50 (PDGF-Ra) [µM]	IC50 (c-kit) [µM]	inhibition at 0.1 µM (PDGF-Ra) [%]	inhibition at 1 µM (c-kit) [%]	SMILES
0.017	0.043	–	–	CCCCCC(C)OC(=O)Nc1ccc(Oc2ccnc3cc(OC)c(OC)cc23)cc1 (centres unmarked) [Example 411, 1-Methylhexyl N-{4-[(6,7-dimethoxy-4-quinolyl)oxy]phenyl}carbamate]
0.081	0.122	–	–	CCCCCC(C)OC(=O)Nc1cc(C)c(Oc2ccnc3cc(OC)c(OC)cc23)cc1C (centres unmarked) [Example 412]
0.039	0.05	–	–	CCCCCC(C)OC(=O)Nc1ccc(Oc2ccnc3cc(OC)c(OC)cc23)c(C)c1C (centres unmarked) [Example 413, 1-Methylhexyl N-{4-[(6,7-dimethoxy-4-quinolyl)oxy]-2,3-dimethylphenyl}carbamate]
0.024	0.098	–	–	COc1cc2nccc(Oc3ccc(NC(=O)OCCCN4CCCCC4)c(C)c3C)c2cc1OC [Example 415, 3-Piperidinopropyl N-{4-[(6,7-dimethoxy-4-quinolyl)oxy]-2,3-dimethylphenyl}carbamate]
0.026	0.401	–	–	COc1cc2nccc(Oc3ccc(NC(=O)OCN4C(=O)c5ccccc5C4=O)c(C)c3C)c2cc1OC [Example 418, (1,3-Dioxo-2,3-dihydro-1H-2-isoindolyl)methyl N-{4-[(6,7-dimethoxy-4-quinolyl)oxy]-2,3-dimethylphenyl}carbamate]
0.016	0.077	–	–	COc1cc2nccc(Oc3ccc(NC(=O)OCCN4C(=O)c5ccccc5C4=O)c(C)c3C)c2cc1OC [Example 420, 2-(1,3-Dioxo-2,3-dihydro-1H-2-isoindolyl)ethyl N-{4-[(6,7-dimethoxy-4-quinolyl)oxy]-2,3-dimethylphenyl}carbamate]
< 0.01	0.119	–	–	COc1cc2nccc(Oc3cc(C)c(NC(=O)OCCCN4CCOCC4)cc3C)c2cc1OC [Example 422, 3-Morpholinopropyl N-{4-[(6,7-dimethoxy-4-quinolyl)oxy]-2,5-dimethylphenyl}carbamate]
0.047	0.224	–	–	COc1cc2nccc(Oc3ccc(NC(=O)OCCCN4CCN(C)CC4)cc3)c2cc1OC [Example 424, 3-(4-Methylpiperazino)propyl N-{4-[(6,7-dimethoxy-4-quinolyl)oxy]phenyl}carbamate]
> 0.1	0.464	5	–	COc1cc2nccc(Oc3cc(C)c(NC(=O)OCCCN4CCN(C)CC4)cc3C)c2cc1OC [Example 425, 3-(4-Methylpiperazino)propyl N-{4-[(6,7-dimethoxy-4-quinolyl)oxy]-2,5-dimethylphenyl}carbamate]
0.022	0.272	–	–	CCN(CC)CCCOC(=O)Nc1ccc(Oc2ccnc3cc(OC)c(OC)cc23)cc1 [Example 426, 3-(Diethylamino)propyl N-{4-[(6,7-dimethoxy-4-quinolyl)oxy]phenyl}carbamate]
> 0.1	0.364	13	–	CCN(CC)CCCOC(=O)Nc1cc(C)c(Oc2ccnc3cc(OC)c(OC)cc23)cc1C [Example 427, 3-(Diethylamino)propyl N-{4-[(6,7-dimethoxy-4-quinolyl)oxy]-2,5-dimethylphenyl}carbamate]
0.064	0.158	–	–	CCN(CC)CCCOC(=O)Nc1ccc(Oc2ccnc3cc(OC)c(OC)cc23)c(C)c1C [Example 428, 3-(Diethylamino)propyl N-{4-[(6,7-dimethoxy-4-quinolyl)oxy]-2,3-dimethylphenyl}carbamate]
0.054	0.603	–	–	CCN(CC)CCCOC(=O)Nc1ccc(Oc2ncnc3cc(OC)c(OC)cc23)cc1 [Example 429, 3-(Diethylamino)propyl N-{4-[(6,7-dimethoxy-4-quinazolinyl)oxy]phenyl}carbamate]
0.076	0.182	–	–	COc1cc2nccc(Oc3cc(C)c(NC(=O)OCc4ccccn4)cc3C)c2cc1OC [Example 430, 2-Pyridylmethyl N-{4-[(6,7-dimethoxy-4-quinolyl)oxy]-2,5-dimethylphenyl}carbamate]
0.017	0.043	–	–	COc1cc2nccc(Oc3ccc(NC(=O)OCc4ccccn4)c(C)c3C)c2cc1OC [Example 431, 2-Pyridylmethyl N-{4-[(6,7-dimethoxy-4-quinolyl)oxy]-2,3-dimethylphenyl}carbamate]
0.013	< 0.03	–	–	COc1cc2nccc(Oc3ccc(NC(=O)OCc4cccnc4)c(C)c3C)c2cc1OC [Example 432, 3-Pyridylmethyl N-{4-[(6,7-dimethoxy-4-quinolyl)oxy]-2,3-dimethylphenyl}carbamate]
0.011	< 0.03	–	–	COc1cc2nccc(Oc3ccc(NC(=O)OCc4ccncc4)cc3)c2cc1OC [Example 433, 4-Pyridylmethyl N-{4-[(6,7-dimethoxy-4-quinolyl)oxy]phenyl}carbamate]

IC50 (PDGF-Ra) [µM]	IC50 (c-kit) [µM]	inhibition at 0.1 µM (PDGF-Ra) [%]	inhibition at 1 µM (c-kit) [%]	SMILES
0.02	< 0.03	–	–	COc1cc2ncnc(Oc3ccc(NC(=O)OCc4ccncc4)cc3)c2cc1OC [Example 434, 4-Pyridylmethyl N-{4-[(6,7-dimethoxy-4-quinazolinyl)oxy]phenyl}carbamate]
0.033	0.445	–	–	CCN(CC)CCOC(=O)Nc1ccc(Oc2ccnc3cc(OC)c(OC)cc23)cc1 [Example 435, 2-(Diethylamino)ethyl N-{4-[(6,7-dimethoxy-4-quinolyl)oxy]phenyl}carbamate]
> 0.1	0.878	46	–	CCN(CC)CCOC(=O)Nc1ccc(Oc2ncnc3cc(OC)c(OC)cc23)cc1 [Example 436, 2-(Diethylamino)ethyl N-{4-[(6,7-dimethoxy-4-quinazolinyl)oxy]phenyl}carbamate]
0.048	0.25	–	–	CCCC(CCN1CCOCC1)OC(=O)Nc1ccc(Oc2ccnc3cc(OC)c(OC)cc23)cc1 (centres unmarked) [Example 437, 1-(2-Morpholinoethyl)butyl N-{4-[(6,7-dimethoxy-4-quinolyl)oxy]phenyl}carbamate]
> 0.1	0.414	41	–	CCCC(CCN1CCOCC1)OC(=O)Nc1cc(C)c(Oc2ccnc3cc(OC)c(OC)cc23)cc1C (centres unmarked) [Example 438, 1-(2-Morpholinoethyl)butyl N-{4-[(6,7-dimethoxy-4-quinolyl)oxy]-2,5-dimethylphenyl}carbamate]
0.052	0.224	–	–	CCCC(CCN1CCOCC1)OC(=O)Nc1ccc(Oc2ccnc3cc(OC)c(OC)cc23)c(C)c1C (centres unmarked) [Example 439, 1-(2-Morpholinoethyl)butyl N-{4-[(6,7-dimethoxy-4-quinolyl)oxy]-2,3-dimethylphenyl}carbamate]
0.047	0.351	–	–	CCCC(CCN1CCOCC1)OC(=O)Nc1ccc(Oc2ncnc3cc(OC)c(OC)cc23)cc1 (centres unmarked) [Example 440]
> 0.1	–	32	28	CCCC(CCN(CC)CC)OC(=O)Nc1cc(C)c(Oc2ccnc3cc(OC)c(OC)cc23)cc1C (centres unmarked) [Example 442, 1-[2-(Diethylamino)ethyl]butyl N-{4-[(6,7-dimethoxy-4-quinolyl)oxy]-2,5-dimethylphenyl}carbamate]
0.015	0.627	–	–	CCCC(CCN(CC)CC)OC(=O)Nc1ccc(Oc2ccnc3cc(OC)c(OC)cc23)c(C)c1C (centres unmarked) [Example 443, 1-[2-(Diethylamino)ethyl]butyl N-{4-[(6,7-dimethoxy-4-quinolyl)oxy]-2,3-dimethylphenyl}carbamate]
0.021	0.972	–	–	CCCC(CCN(CC)CC)OC(=O)Nc1ccc(Oc2ncnc3cc(OC)c(OC)cc23)cc1 (centres unmarked) [Example 444, 1-[2-(Diethylamino)ethyl]butyl N-{4-[(6,7-dimethoxy-4-quinazolinyl)oxy]phenyl}carbamate]
> 0.1	0.941	11	–	CCCC(CCN1CCCCC1)OC(=O)Nc1ccc(Oc2ccnc3cc(OC)c(OC)cc23)cc1 (centres unmarked) [Example 445, 1-(2-Piperidinoethyl)butyl N-{4-[(6,7-dimethoxy-4-quinolyl)oxy]phenyl}carbamate]
> 0.1	–	39	40	CCCC(CCN1CCCCC1)OC(=O)Nc1cc(C)c(Oc2ccnc3cc(OC)c(OC)cc23)cc1C (centres unmarked) [Example 446, 1-(2-Piperidinoethyl)butyl N-{4-[(6,7-dimethoxy-4-quinolyl)oxy]-2,5-dimethylphenyl}carbamate]
> 0.1	0.553	11	–	CCCC(CCN1CCCCC1)OC(=O)Nc1ccc(Oc2ccnc3cc(OC)c(OC)cc23)c(C)c1C (centres unmarked) [Example 447]
> 0.1	–	39	25	CCCC(CCN1CCCCC1)OC(=O)Nc1ccc(Oc2ncnc3cc(OC)c(OC)cc23)cc1 (centres unmarked) [Example 448, 1-(2-Piperidinoethyl)butyl N-{4-[(6,7-dimethoxy-4-quinazolinyl)oxy]phenyl}carbamate]
> 0.1	0.747	26	–	CCCC(CCN1CCN(C)CC1)OC(=O)Nc1ccc(Oc2ccnc3cc(OC)c(OC)cc23)cc1 (centres unmarked) [Example 449, 1-[2-(4-Methylpiperazino)ethyl]butyl N-{4-[(6,7-dimethoxy-4-quinolyl)oxy]phenyl}carbamate]
> 0.1	–	13	46	CCCC(CCN1CCN(C)CC1)OC(=O)Nc1cc(C)c(Oc2ccnc3cc(OC)c(OC)cc23)cc1C (centres unmarked) [Example 450, 1-[2-(4-Methylpiperazino)ethyl]butyl N-{4-[(6,7-dimethoxy-4-quinolyl)oxy]-2,5-dimethylphenyl}carbamate]
